Measured values reported in patent publication US11591369B2, “Alpha(v)beta(6) integrin-binding peptides and methods of use thereof” (priority 2018, dated 2023).
Values joined by “and” are separate entries in the source; they are usually repeats but may differ in a detail not shown here. Identical values can stand only once. Primed or numbered codes have the meaning given here. Where no end group is shown, it is not given here. The star is where a group is joined. (18F)FB = [18F] fluorobenzoyl group, O=C(c1ccc([18F])cc1)*; (18F)FB″ = [18F]fluorobenzoyl, O=C(c1ccc([18F])cc1)*

Experiments:
αvβ6 integrin = target: T1, αvβ6 integrin (Homo sapiens, UniProt P06756+P18564); assay: Competitive binding ELISA against biotinylated LAP (BtLAP), αvβ6 integrin; conditions: compared to T1
T1 construct: All purified integrins were purchased from R&D Systems (MN, USA); purchased R&D Systems (MN, USA)

DX3puroβ6 (αvβ6+) cells = assay: [18F]-radiolabeled peptide cell binding and internalization, DX3puroβ6 (αvβ6+) cells; assay type: cell-based, human; conditions: for percent internalized relative to the amount bound to DX3puroβ6 (αvβ6+) cells / binding to DX3puroβ6 (αvβ6+) cells: 1 hour; for binding to DX3puroβ6 (αvβ6+) cells: % of total activity, 37° C.

T1 sequence (P06756 31-992 limits assumed): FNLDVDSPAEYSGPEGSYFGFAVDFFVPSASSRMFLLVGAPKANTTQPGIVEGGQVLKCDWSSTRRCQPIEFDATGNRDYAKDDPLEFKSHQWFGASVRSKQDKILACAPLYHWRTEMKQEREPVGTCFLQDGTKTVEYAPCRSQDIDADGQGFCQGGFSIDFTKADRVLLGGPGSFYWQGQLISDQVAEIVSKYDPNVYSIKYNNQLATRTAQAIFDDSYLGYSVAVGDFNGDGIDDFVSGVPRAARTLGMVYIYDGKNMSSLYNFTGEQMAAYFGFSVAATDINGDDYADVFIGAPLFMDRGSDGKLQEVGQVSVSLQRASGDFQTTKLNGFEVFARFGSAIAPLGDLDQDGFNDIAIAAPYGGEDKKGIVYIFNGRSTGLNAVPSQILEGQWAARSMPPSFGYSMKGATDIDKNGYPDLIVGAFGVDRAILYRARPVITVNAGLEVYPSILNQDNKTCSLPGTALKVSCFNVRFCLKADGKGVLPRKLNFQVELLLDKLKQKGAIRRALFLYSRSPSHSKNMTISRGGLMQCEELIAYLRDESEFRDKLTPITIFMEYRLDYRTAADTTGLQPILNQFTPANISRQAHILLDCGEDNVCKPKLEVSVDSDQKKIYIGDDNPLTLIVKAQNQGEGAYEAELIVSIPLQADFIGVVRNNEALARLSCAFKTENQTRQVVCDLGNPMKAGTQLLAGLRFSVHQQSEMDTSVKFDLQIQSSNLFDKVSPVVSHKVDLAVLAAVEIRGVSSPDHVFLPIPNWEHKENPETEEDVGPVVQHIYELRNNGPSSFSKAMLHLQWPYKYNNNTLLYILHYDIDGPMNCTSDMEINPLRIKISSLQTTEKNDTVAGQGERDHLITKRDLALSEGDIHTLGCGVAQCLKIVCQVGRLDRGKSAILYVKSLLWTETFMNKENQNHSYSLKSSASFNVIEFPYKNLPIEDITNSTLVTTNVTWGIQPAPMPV
T1 sequence (P18564 22-707 limits assumed): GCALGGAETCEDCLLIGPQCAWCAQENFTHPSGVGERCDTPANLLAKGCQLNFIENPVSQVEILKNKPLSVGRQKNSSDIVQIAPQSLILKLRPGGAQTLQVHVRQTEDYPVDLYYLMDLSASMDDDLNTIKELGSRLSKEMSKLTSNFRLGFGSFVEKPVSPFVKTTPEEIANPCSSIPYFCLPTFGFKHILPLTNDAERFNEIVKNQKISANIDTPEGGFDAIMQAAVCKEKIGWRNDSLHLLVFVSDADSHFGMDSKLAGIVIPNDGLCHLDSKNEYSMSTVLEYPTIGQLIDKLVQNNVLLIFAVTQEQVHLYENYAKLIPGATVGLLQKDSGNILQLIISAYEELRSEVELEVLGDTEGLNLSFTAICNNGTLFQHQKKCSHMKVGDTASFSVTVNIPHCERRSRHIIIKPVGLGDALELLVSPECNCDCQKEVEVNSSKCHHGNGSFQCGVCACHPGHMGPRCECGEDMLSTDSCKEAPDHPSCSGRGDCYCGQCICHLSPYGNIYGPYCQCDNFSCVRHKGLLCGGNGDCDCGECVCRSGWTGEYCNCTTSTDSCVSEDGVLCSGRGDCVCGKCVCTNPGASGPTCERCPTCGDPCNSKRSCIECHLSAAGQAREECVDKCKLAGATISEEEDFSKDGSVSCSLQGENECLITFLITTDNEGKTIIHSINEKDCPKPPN

Row | Molecule | fold drop in affinity for αvβ6 (αvβ6 integrin) [fold] | percent internalized relative to the amount bound to DX3puroβ6 (αvβ6+) cells (DX3puroβ6 (αvβ6+) cells) [%] | binding to DX3puroβ6 (αvβ6+) cells (DX3puroβ6 (αvβ6+) cells) | other results
1 | CC(C)C[C@H](NC(=O)[C@H](Cc1ccc(O)cc1)NC(=O)[C@@H](NC(=O)[C@H](CC(C)C)NC(=O)[C@H](CC(=O)O)NC(=O)CNC(=O)[C@@H](NC(=O)COCCOCCNC(=O)c1ccc(F)cc1)C(C)C)[C@@H](C)O)C(=O)N[C@@H](CCCCN)C(=O)N[C@@H](CCC(N)=O)C(=O)N[C@@H](CCCCN)C(=O)N[C@H](C(=O)N[C@@H](C)C(=O)N[C@@H](CCCNC(=N)N)C(=O)N[C@H](C(=O)NCCOCCOCCOCCOCCOCCOCCOCCOCCOCCOCCOCCOCCOCCOCCOCCOCCOCCOCCOCCOCCOCCOCCOCCOCCOCCOCCOCCOCCC(N)=O)[C@@H](C)O)C(C)C [T1-a] | 24 | – | – | –
2 | CC(C)C[C@H](NC(=O)[C@H](Cc1ccc(O)cc1)NC(=O)[C@@H](NC(=O)[C@H](CC(C)C)NC(=O)[C@H](CC(=O)O)NC(=O)CNC(=O)[C@@H](NC(=O)CCOCCOCCOCCOCCNC(=O)c1ccc(F)cc1)C(C)C)[C@@H](C)O)C(=O)N[C@@H](CCCCN)C(=O)N[C@@H](CCC(N)=O)C(=O)N[C@@H](CCCCN)C(=O)N[C@H](C(=O)N[C@@H](C)C(=O)N[C@@H](CCCNC(=N)N)C(=O)N[C@H](C(=O)NCCOCCOCCOCCOCCOCCOCCOCCOCCOCCOCCOCCOCCOCCOCCOCCOCCOCCOCCOCCOCCOCCOCCOCCOCCOCCOCCOCCOCCC(N)=O)[C@@H](C)O)C(C)C [T1-b] | 13 | – | – | –
3 | CC(C)C[C@H](NC(=O)[C@H](Cc1ccc(O)cc1)NC(=O)[C@@H](NC(=O)[C@H](CC(C)C)NC(=O)[C@H](CC(=O)O)NC(=O)CNC(=O)[C@@H](NC(=O)CCOCCOCCOCCOCCOCCOCCOCCOCCNC(=O)c1ccc(F)cc1)C(C)C)[C@@H](C)O)C(=O)N[C@@H](CCCCN)C(=O)N[C@@H](CCC(N)=O)C(=O)N[C@@H](CCCCN)C(=O)N[C@H](C(=O)N[C@@H](C)C(=O)N[C@@H](CCCNC(=N)N)C(=O)N[C@H](C(=O)NCCOCCOCCOCCOCCOCCOCCOCCOCCOCCOCCOCCOCCOCCOCCOCCOCCOCCOCCOCCOCCOCCOCCOCCOCCOCCOCCOCCOCCC(N)=O)[C@@H](C)O)C(C)C [T1-c] | 50 | – | – | –
4 | CC(C)C[C@H](NC(=O)[C@H](Cc1ccc(O)cc1)NC(=O)[C@@H](NC(=O)[C@H](CC(C)C)NC(=O)[C@H](CC(=O)O)NC(=O)CNC(=O)[C@@H](NC(=O)CCOCCOCCOCCOCCOCCOCCOCCOCCOCCOCCOCCOCCNC(=O)c1ccc(F)cc1)C(C)C)[C@@H](C)O)C(=O)N[C@@H](CCCCN)C(=O)N[C@@H](CCC(N)=O)C(=O)N[C@@H](CCCCN)C(=O)N[C@H](C(=O)N[C@@H](C)C(=O)N[C@@H](CCCNC(=N)N)C(=O)N[C@H](C(=O)NCCOCCOCCOCCOCCOCCOCCOCCOCCOCCOCCOCCOCCOCCOCCOCCOCCOCCOCCOCCOCCOCCOCCOCCOCCOCCOCCOCCOCCC(N)=O)[C@@H](C)O)C(C)C [T1-d] | 9 | – | – | –
5 | [^18F]FB-RSDLTPLF ({(18F)FB}-RSDLTPLF) [N-[^18F]KL3] | – | 23.5±4.7 | 0.7±0.2% | –
6 | [^18F]FB-RSDLTPLFQKVART ({(18F)FB″}-RSDLTPLFQKVART) [N-[^18F]KL3Q] | – | 22.8±1.3 | 1.3±0.1% | fold increase in cell binding (DX3puroβ6 (αvβ6+) cells; compared to N-[18F]KL3): 2 fold
7 | [^18F]FB-VGDLTYLKKKVART ({(18F)FB″}-VGDLTYLKKKVART) [N-[^18F]P1K-b] | – | – | 7.9±0.7% | –
8 | [^18F]FB-VGDLTYLKQKVART ({(18F)FB″}-VGDLTYLKQKVART) [N-[^18F]P1Q] | – | 10.2±1.2 | 5.6±0.2% and 2.1±0.2% and 5.6% | –
9 | [^18F]FB-VGDLTYLKRKATVQ ({(18F)FB″}-VGDLTYLKRKATVQ) [N-[^18F]P1Q-Scrb] | – | – | 2.1±0.2% | DX3puroβ6 (αvβ6+)/DX3puro (αvβ6−) selectivity ratio (DX3puroβ6 (αvβ6+) cells): 1.7±0.06 :1
